Results: article PMC3986099, “Development of a Radioiodinated Triazolopyrimidine Probe for Nuclear Medical Imaging of Fatty Acid Binding Protein 4” (PLoS ONE, 2014)

Assays:
his-tagged FABP3 = target: T1, his-tagged FABP3 (Homo sapiens, UniProt P05413); assay: Selectivity binding assay with FABP immobilized on Ni-NTA magnetic agarose beads; details: immobilized FABP3, 2 hr, room temperature
T1 construct: purchased Cayman Chemical Company
Procedure: For the selectivity binding assay, his-tagged FABP3 (0.75 mg/ml), FABP4 (0.75 mg/ml) and FABP5 (0.70 mg/ml) in 50 mM phosphate buffer containing 100 mM NaCl (20% glycerol, v/v, pH = 7.2) were used. Immobilization was performed following the manufacturer's procedures. Each solution of his-tagged FABP3 ([…], 1.5 µg), FABP4 (0.002 ml, 1.5 µg) or FABP5 (0.002 ml, 1.4 µg) was incubated with 0.02 ml Ni-NTA Magnetic Agarose Beads (Qiagen) and 0.5 ml protein binding buffer (50 mM NaH2PO4, 300 mM NaCl, 10 mM imidazole, pH = 8.0) at room temperature for 1 hr. After supernatant removal, protein binding buffer with 1% BSA was added, and the mixture was incubated at room temperature for 30 min. After removal of the supernatant, 0.4 ml of interaction buffer (50 mM NaH2PO4, 300 mM NaCl, 10 mM imidazole, and 0.005% Tween, v/v, pH = 8.0) and 0.05 ml [^125I]TAP1 (0.01 MBq) in interaction buffer (5% ethanol, v/v) were added. For measurement of non-specific binding, 0.05 ml of nonradioactive TAP1 in interaction buffer (5% ethanol, v/v, 11.3 µM) was added with the [^125I]TAP1. After incubation at room temperature for 2 hr, the supernatants were removed, and the beads washed with interaction buffer (5% ethanol, v/v). The radioactivity of beads in the tubes was measured with a well-type γ-counter (1480 Wizard3, PerkinElmer Japan Co., Osaka, Japan). Binding ratios were calculated as (radioactivity of beads)/(total applied radioactivity)/(protein abundance on beads)×100 (%Dose/µg protein).

[1] = test system: 3T3-L1 preadipocytes and differentiated adipocytes; assay: Cell uptake study in adipocytes and preadipocytes; type: cell-based, Murine; details: 37 °C, 1 hr
Procedure: Murine 3T3-L1 preadipocytes were obtained from ATCC and cultured in Dulbecco's Modified Eagle Medium (Nissui Pharmaceutical Co., Ltd.) supplemented with 10% heat-inactivated fetal bovine serum, 50 U/ml penicillin and 50 μg/ml streptomycin at 37 °C in 5% CO2. For cell uptake assay, differentiation of 3T3-L1 cells was performed as described previously. Briefly, two days after confluence, the medium was replaced with DMEM containing 10% FBS and inducers ([…], 10 μg/ml insulin, 0.5 mM 3-isobutyl-1-methylxanthine and 10 μM pioglitazone hydrochloride) for 2 days. The medium was then changed to DMEM supplemented with 10% FBS, 10 μg/ml insulin and 10 μM pioglitazone hydrochloride, and then incubated for 2 days. Then, the medium was changed to DMEM supplemented with 10% FBS and 10 μM pioglitazone hydrochloride every other day. After 8-10 days, the differentiated adipocytes were used for experiments.
For the cell uptake study using adipocytes, the medium of 24-well plate, in which the differentiated adipocytes or undifferentiated 3T3-L1 cells are cultured, was removed. […] Following the measurement of the radioactivity of collected cell lysate with a well-type γ-counter, protein determination was performed. […] Binding ratios were calculated as (radioactivity in collected cells)/(total applied radioactivity)/(protein abundance) x 100 (%Dose/mg protein).

C6 tumors = assay: Biodistribution in C6 bearing mice; type: in vivo, Balb/c nu-nu mice; details: for Blood / Heart / Intestine / Kidney / Liver / Lung / Muscle / Pancreas / Spleen / Stomach / Tumor / T/B ratio / T/M ratio: C6 bearing mice, i.v.; for T/B ratio: tumor to blood; for T/M ratio: tumor to muscle
Procedure: C6 cells were suspended in PBS(-) followed by subcutaneous inoculation into the right hind legs of Balb/c nu-nu mice (5×10^6 cells/100 µL).
A saline solution (5% ethanol, v/v) of [^125I]TAP1 (0.06 MBq) was injected intravenously into the tail vein of C6 cell implantation model Balb/c nu-nu mice (males, 8 weeks old). The mice were sacrificed at various post-injection time points and organs, including tumor tissues, were removed. The weight and radioactivity of the organs were measured as mentioned above. Several model mice were sacrificed 3 hr after the injection by transcardial perfusion of saline (20 ml) under anesthesia with chloral hydrate. The weight and radioactivity of the removed organs, including tumor tissues, were measured as mentioned above.

T1 sequence (P05413 whole entry): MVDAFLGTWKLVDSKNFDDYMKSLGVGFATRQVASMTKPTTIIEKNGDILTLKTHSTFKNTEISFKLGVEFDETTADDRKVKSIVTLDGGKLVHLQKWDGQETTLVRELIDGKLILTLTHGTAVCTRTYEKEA

O=c1cc(COc2cccc([125I])c2)[nH]c2nc(-c3ccccc3)nn12 [[^125I]TAP1]
binding to FABP3 (his-tagged FABP3): 1.4±0.5 % dose/µg protein | uptake into adipocytes (FABP4 positive) vs 3T3-L1 preadipocytes (FABP4 negative) [1]: significantly higher | radioactivity accumulation in tumors (peak) (C6 tumors; 15 min after injection): 2.26±0.45 %ID/g | radioactivity accumulation in C6 tumors (C6 tumors; 3 hr after injection): 1.37±0.24 % dose/g | tumor accumulation, decapitation (C6 tumors; 3 hr after injection, sacrificed by decapitation): 0.85±0.18 %ID/g | tumor accumulation, transcardial perfusion (C6 tumors; 3 hr after injection, sacrificed by transcardial perfusion): 0.96±0.18 %ID/g | tumor to muscle ratio (C6 tumors; 3 hr after probe injection): 3.6 | Blood (C6 tumors; 5 min): 10.40±2.34 % injected dose per gram | Heart (C6 tumors; 5 min): 3.36±0.64 % injected dose per gram | Intestine (C6 tumors; 5 min): 2.35±0.34 % injected dose per gram | Kidney (C6 tumors; 5 min): 29.66±2.24 % injected dose per gram | Liver (C6 tumors; 5 min): 46.01±5.99 % injected dose per gram | Lung (C6 tumors; 5 min): 6.76±1.12 % injected dose per gram | Muscle (C6 tumors; 5 min): 1.05±0.33 % injected dose per gram | Pancreas (C6 tumors; 5 min): 2.55±0.31 % injected dose per gram | Spleen (C6 tumors; 5 min): 2.20± 0.44 % injected dose per gram | Stomach (C6 tumors; 5 min): 0.42±0.16 % injected dose per organ | Tumor (C6 tumors; 5 min): 1.94±0.44 % injected dose per gram | Blood (C6 tumors; 15 min): 6.60±0.61 % injected dose per gram | Heart (C6 tumors; 15 min): 2.45±0.41 % injected dose per gram | Intestine (C6 tumors; 15 min): 5.08±0.95 % injected dose per gram | Kidney (C6 tumors; 15 min): 62.82±9.70 % injected dose per gram | Liver (C6 tumors; 15 min): 37.58±2.88 % injected dose per gram | Lung (C6 tumors; 15 min): 4.26±0.19 % injected dose per gram | Muscle (C6 tumors; 15 min): 0.74±0.15 % injected dose per gram | Pancreas (C6 tumors; 15 min): 1.20±0.20 % injected dose per gram | Spleen (C6 tumors; 15 min): 1.09±0.10 % injected dose per gram | Stomach (C6 tumors; 15 min): 1.02±0.38 % injected dose per organ | Tumor (C6 tumors; 15 min): 2.26±0.45 % injected dose per gram | Blood (C6 tumors; 30 min): 4.74±1.17 % injected dose per gram | Heart (C6 tumors; 30 min): 1.76±0.40 % injected dose per gram | Intestine (C6 tumors; 30 min): 7.97±1.32 % injected dose per gram | Kidney (C6 tumors; 30 min): 77.74±8.14 % injected dose per gram | Liver (C6 tumors; 30 min): 42.20±1.51 % injected dose per gram | Lung (C6 tumors; 30 min): 3.16±1.07 % injected dose per gram | Muscle (C6 tumors; 30 min): 0.57±0.12 % injected dose per gram | Pancreas (C6 tumors; 30 min): 0.88±0.13 % injected dose per gram | Spleen (C6 tumors; 30 min): 0.84±0.14 % injected dose per gram | Stomach (C6 tumors; 30 min): 0.60±0.13 % injected dose per organ | Tumor (C6 tumors; 30 min): 1.63±0.38 % injected dose per gram | Blood (C6 tumors; 60 min): 3.25±0.66 % injected dose per gram | Heart (C6 tumors; 60 min): 1.12±0.17 % injected dose per gram | Intestine (C6 tumors; 60 min): 11.59±0.20 % injected dose per gram | Kidney (C6 tumors; 60 min): 71.54±8.25 % injected dose per gram | Liver (C6 tumors; 60 min): 30.46±3.28 % injected dose per gram | Lung (C6 tumors; 60 min): 2.19±0.52 % injected dose per gram | Muscle (C6 tumors; 60 min): 0.37±0.05 % injected dose per gram | Pancreas (C6 tumors; 60 min): 0.63±0.08 % injected dose per gram | Spleen (C6 tumors; 60 min): 0.65±0.08 % injected dose per gram | Stomach (C6 tumors; 60 min): 0.73±0.40 % injected dose per organ | Tumor (C6 tumors; 60 min): 1.09±0.05 % injected dose per gram | Blood (C6 tumors; 180 min): 3.29±0.40 % injected dose per gram | Heart (C6 tumors; 180 min): 1.14±0.04 % injected dose per gram | Intestine (C6 tumors; 180 min): 15.76±3.03 % injected dose per gram | Kidney (C6 tumors; 180 min): 73.44±4.42 % injected dose per gram | Liver (C6 tumors; 180 min): 33.97±4.98 % injected dose per gram | Lung (C6 tumors; 180 min): 1.88±0.25 % injected dose per gram | Muscle (C6 tumors; 180 min): 0.39±0.09 % injected dose per gram | Pancreas (C6 tumors; 180 min): 0.70±0.13 % injected dose per gram | Spleen (C6 tumors; 180 min): 0.82±0.11 % injected dose per gram | Stomach (C6 tumors; 180 min): 0.89±0.40 % injected dose per organ | Tumor (C6 tumors; 180 min): 1.37±0.24 % injected dose per gram | T/B ratio (C6 tumors; 5 min): 0.19±0.04 | T/B ratio (C6 tumors; 15 min): 0.34±0.06 | T/B ratio (C6 tumors; 30 min): 0.35±0.03 | T/B ratio (C6 tumors; 60 min): 0.34±0.05 | T/B ratio (C6 tumors; 180 min): 0.42±0.04 | T/M ratio (C6 tumors; 5 min): 1.94±0.52 | T/M ratio (C6 tumors; 15 min): 3.08±0.10 | T/M ratio (C6 tumors; 30 min): 2.96±0.73 | T/M ratio (C6 tumors; 60 min): 2.95±0.41 | T/M ratio (C6 tumors; 180 min): 3.60±0.98
